# Measurements as given in patent US20120093947A1, “METHOD OF TREATING REACTIVE AIRWAY DISEASE” (UNITED STATES DEPARTMENT OF VETERANS AFFAIRS, priority 2009, published 2012).
# Like-named read-outs stand apart in the source and are kept apart here.
# Legend:
# LPO = target: T1, LPO (Bos taurus, UniProt P80025); experiment: EPR of MNP adducts with radicals from β2-agonists generated by LPO/H2O2; type: biochemical, bovine; settings: pH 8.0
# T1 construct: Lactoperoxidase (LPO) from bovine milk (EC 1.11.1.7); purchased Sigma-Aldrich Co. (St. Louis, Mo.); host or cells: bovine milk (natural source)
# Procedure: Formation of free radicals from β2-agonists is studied in samples prepared in 100 mM phosphate buffer (pH 7.0 and 8.0)/DTPA (0.2 mM) (total volume 250 μL) containing MNP, MPO (or LPO) and the agonists. The reaction is initiated by the addition of H2O2 as the last component. In experiments in which H2O2 was generated using glucose (1 mM) and glucose oxidase (3.9 μg/mL), glucose oxidase is added as a last component. The sample is transferred to a flat aqueous EPR cell and recording is started 1 minute after initiation of the reaction. Typically, spectra of MNP adducts are recorded using microwave power 20 mW, modulation amplitude 0.1 mT, receiver gain 2×10^5, conversion time 40.96 ms, time constant 81.92 ms, and scan rate of 10 mT/41.92 s. EPR spectra constitute an average of 5 scans and represent results of typical experiments. Unless stated otherwise, direct EPR measurements (spin traps omitted) of free radicals derived from β2-agonists are performed using conditions similar to those for the detection of MNP adducts. EPR spectra are simulated using WINSIM software developed at NIEHS/NIH (RTP, NC).
# The effect of methimazole and dapsone on the formation of free radicals from drugs is studied in phosphate buffers (pH 7.0 and 8.0) containing DTPA (0.2 mM) and MNP (10 mM in dimers). Oxidation is carried out by MPO (0.43 units/mL)/H2O2 (37 μM) and LPO (0.39 μM)/glucose (1 mM)/glucose oxidase (0.8 μg/mL). […]
# Table 3, below, summarizes the effects of dapsone and methimazole on EPR spectra of MNP adducts with radicals from fenoterol and terbutaline generated by MPO/H2O2 and LPO/H2O2 systems at a pH of 8.0. Concentrations of MNP spin adducts were calculated as second integrals of the low-field component of the respective spectra and are expressed as % of control samples (no additives). Results equal the means±SE of at least two measurements.
# . […] This is consistent with the known inhibitory action of both methimazole and dapsone on LPO activity and only methimazole on MPO activity. Thomas et al. (1994) J. Dent. Res. 73(2):544-55. Results obtained at pH 7.0 qualitatively agree with those at pH 8.0.
# EPO = target: T2, EPO (Homo sapiens, UniProt P11678); experiment: Nitration of salbutamol by EPO/H2O2/NO2−, A410; type: biochemical; settings: 50 μM salbutamol, 5 mM NaNO2, 2 mM H2O2, 0.075 U/mL EPO, pH 7.0, 60 min, ΔA410 versus control
# T2 construct: purchased Calbiochem
# T2 sequence (P11678 251-715 limits assumed): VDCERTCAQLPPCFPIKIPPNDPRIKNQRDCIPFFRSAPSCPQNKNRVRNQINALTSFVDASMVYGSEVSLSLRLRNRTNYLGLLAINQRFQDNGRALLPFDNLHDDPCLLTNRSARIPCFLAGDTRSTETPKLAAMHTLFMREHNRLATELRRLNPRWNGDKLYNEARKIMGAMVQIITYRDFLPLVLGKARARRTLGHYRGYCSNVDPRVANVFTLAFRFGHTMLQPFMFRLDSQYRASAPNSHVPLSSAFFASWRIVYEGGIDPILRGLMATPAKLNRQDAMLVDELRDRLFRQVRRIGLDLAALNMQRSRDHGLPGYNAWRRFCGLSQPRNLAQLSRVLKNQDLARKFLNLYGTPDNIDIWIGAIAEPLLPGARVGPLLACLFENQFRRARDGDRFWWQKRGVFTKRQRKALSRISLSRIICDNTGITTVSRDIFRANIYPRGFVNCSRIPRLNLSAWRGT
# T2 sequence (P11678 140-250 limits assumed): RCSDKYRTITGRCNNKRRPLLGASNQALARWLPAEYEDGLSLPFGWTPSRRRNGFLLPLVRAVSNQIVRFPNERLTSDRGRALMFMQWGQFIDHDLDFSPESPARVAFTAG
# Procedure: (§1) Spectrophotometric Measurements. Spectra are measured using an Agilent diode array spectrophotometer model 8453 (Agilent Technologies, Inc., Santa Clara, Calif.). Nitration of salbutamol is studied by measuring absorption spectra at designated time points following the start of the reaction. Samples are prepared in 100 mM phosphate buffers (pH 7.0). All buffers contained DTPA (100 μM) or are pretreated with Chelex-100 before use, and measurements are performed at ambient temperature of 20° C. Typically, the reaction is started by the addition of a small aliquot of H2O2 or the desired peroxidase. Time course measurements are carried out following changes in absorbance at 410 nm in 30 second intervals versus absorbance at 800 nm, where none of the compounds absorb.
# (§2) We also examine the effect of methimazole on nitration catalyzed by MPO and EPO. 50 μM of salbutamol is reacted with 0.2 U/mL MPO, 5 mM NaNO2, and 2.1 mM H2O2 at pH buffer 7.0 in the presence of 0, 25, 50, and 100 μM methimazole (shown in FIG. 9, section B, traces a-d, respectively). In contrast to inhibition of nitration by LPO system, which was irreversible, inhibitory action of methimazole on MPO/H2O2/NO2^− is transitory.
# The extent of nitration is expressed as a change in ΔA410 versus control (dapsone omitted) taken as 100% after 10, 30, and 60 minute reactions for LPO, MPO, and EPO nitrating systems, respectively. […]
# MPO = MPO (Homo sapiens, UniProt P05164); experiment: Nitration of salbutamol by MPO/H2O2/NO2−, A410; type: biochemical; parameters: Myeloperoxidase (MPO) from human leucocytes (lyophilized powder); purchased Axxora, LLC (San Diego, Calif.); host or cells: human leucocytes (natural source); settings: 50 μM salbutamol; for Nitrophenols, (%) MPO: 5.0 mM NaNO2, 5 mM H2O2, 0.2 U/mL MPO, pH 7.0, 30 min, ΔA410 versus control
# MPO, sequence (P05164 279-745 limits assumed): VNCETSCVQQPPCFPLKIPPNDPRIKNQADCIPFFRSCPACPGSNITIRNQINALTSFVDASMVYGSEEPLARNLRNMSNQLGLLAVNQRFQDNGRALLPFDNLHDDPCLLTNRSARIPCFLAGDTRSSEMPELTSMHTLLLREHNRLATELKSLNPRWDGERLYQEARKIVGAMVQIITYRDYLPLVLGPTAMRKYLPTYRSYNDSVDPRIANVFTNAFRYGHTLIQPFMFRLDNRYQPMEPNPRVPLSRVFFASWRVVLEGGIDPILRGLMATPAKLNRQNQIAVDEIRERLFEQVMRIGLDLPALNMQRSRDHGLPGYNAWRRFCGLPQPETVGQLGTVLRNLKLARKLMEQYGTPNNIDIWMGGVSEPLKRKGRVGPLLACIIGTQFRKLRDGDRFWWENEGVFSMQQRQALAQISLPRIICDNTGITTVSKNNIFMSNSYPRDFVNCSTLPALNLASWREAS
# MPO, sequence (P05164 165-273 limits assumed): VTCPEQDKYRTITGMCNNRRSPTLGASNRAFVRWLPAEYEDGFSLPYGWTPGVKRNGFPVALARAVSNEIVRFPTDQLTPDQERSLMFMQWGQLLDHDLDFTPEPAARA
# Procedure: as §1, §2
# The extent of nitration is expressed as a change in ΔA410 versus control (dapsone omitted) taken as 100% after 10, 30, and 60 minute reactions for LPO, MPO, and EPO nitrating systems, respectively. Results equal the means±SE of at least two measurements. In the LPO system, 100 μM of salbutamol, 3.4 mM of NaNO2, 4 mM of H2O2, and 65 nM of LPO is used. In the MPO system, 50 μM of salbutamol, 5.0 mM of NaNO2, 5 mM of H2O2, and 0.2 U/mL of MPO is used. In the EPO system, 50 μM of salbutamol, 5 mM of NaNO2, 2 mM of H2O2, and 0.075 U/mL of EPO is used. All reactions were carried out in pH 7.0 phosphate buffer containing DMSO (5% v/v). The term “nitrophenols” includes nitrosalbutamol (N-Sal) and salbutamol-derived nitrophenol (N—ArOH).
"Concentration of MNP spin adducts, Fenoterol, +LPO + H2O2, % of control (LPO; fenoterol 0.047 mM, inhibitor 1 mM, reagent H2O2 37 μM)","remaining activity at 1000 µM (LPO; fenoterol 0.047 mM, inhibitor 1 mM, reagent H2O2 37 μM, read-out: Concentration of MNP spin adducts, Fenoterol, +LPO + H2O2, % of control) [%]","Concentration of MNP spin adducts, Terbutaline, +LPO + H2O2, % of control (LPO; terbutaline 0.047 mM, inhibitor 1 mM, reagent H2O2 37 μM)","remaining activity at 1000 µM (LPO; terbutaline 0.047 mM, inhibitor 1 mM, reagent H2O2 37 μM, read-out: Concentration of MNP spin adducts, Terbutaline, +LPO + H2O2, % of control) [%]","Nitrophenols, (%) EPO (EPO; dapsone 140 μM) [%]","Nitrophenols, (%) EPO (EPO; dapsone 300 μM) [%]","Nitrophenols, (%) MPO (MPO; dapsone 100 μM) [%]","Nitrophenols, (%) MPO (MPO; dapsone 250 μM) [%]","Nitrophenols, (%) MPO (MPO; dapsone 500 μM) [%]","Concentration of MNP spin adducts, Fenoterol, +LPO + H2O2, % of control (LPO; fenoterol 0.47 mM, inhibitor 0.86 mM, H2O2 from glucose 1 mM/glucose oxidase 0.8 μg/mL)","remaining activity at 860 µM (LPO; fenoterol 0.47 mM, inhibitor 0.86 mM, H2O2 from glucose 1 mM/glucose oxidase 0.8 μg/mL, read-out: Concentration of MNP spin adducts, Fenoterol, +LPO + H2O2, % of control) [%]","Concentration of MNP spin adducts, Terbutaline, +LPO + H2O2, % of control (LPO; terbutaline 0.47 mM, inhibitor 0.86 mM, H2O2 from glucose 1 mM/glucose oxidase 0.8 μg/mL)","remaining activity at 860 µM (LPO; terbutaline 0.47 mM, inhibitor 0.86 mM, H2O2 from glucose 1 mM/glucose oxidase 0.8 μg/mL, read-out: Concentration of MNP spin adducts, Terbutaline, +LPO + H2O2, % of control) [%]","Inhibitory action on nitration of salbutamol by MPO/H2O2/NO2− (MPO; methimazole 25, 50, 100 μM, 0.2 U/mL MPO, 5 mM NaNO2, 2.1 mM H2O2, pH 7.0)",SMILES
markedly inhibit,13.9 ± 0.6,markedly inhibit,54.6 ± 20,57,34 ± 2,66.3 ± 0.6,56.0 ± 1.3,44.2 ± 3.0,,,,,,"Nc1ccc(S(=O)(=O)c2ccc(N)cc2)cc1 [Dapsone, diamino-diphenyl sulfone]"
,,,,,,,,,markedly inhibit,26.9 ± 8.2,markedly inhibit,33.9,transitory,"Cn1cc[nH]c1=S [Methimazole, 1-methyl-3H-imidazole-2-thione]"
